The source of these data is US5710160A, “Diphenyl pyridyl ethane derivatives as PDE IV inhibitors” (Merck Frosst Canada, Inc., priority 1996, dated 1998).

One data set relates to right atrial and papillary muscles.
Assay: not given
The note with it: non-specific PDE inhibitor; general statement; cited from earlier work.
Turning to `Cn1c(=O)c2[nH]cnc2n(C)c1=O` [theophylline], the cardiovascular changes entry was “significant cardiovascular changes such as tachycardia”.

For the next data set the test system is unchanged. In words: Effects on cardiac muscle in vitro. Details: species or system guinea pigs. The note with it: reference PDE inhibitors; no concentration given. An excerpt:
Right atrial and papillary muscles were dissected out from the hearts of guinea pigs and suspended in organ baths for measuring the rate (chronotropic) of spontaneously beating atria and force (inotropic) of the electrically stimulated papillary muscle.
Turning to `Cc1[nH]c(=O)c(C#N)cc1-c1ccncc1` [milrinone], the “direct (chronotropic and inotropic) effects in these preparations” value was “positive chronotropic and inotropic effects”. As to `COc1ccc(C2CNC(=O)C2)cc1OC1CCCC1` (stereo not drawn) [rolipram], the “direct (chronotropic and inotropic) effects in these preparations” value is “do not have any direct effects”.

In a further data set the target is T1, GST fusion protein of the human recombinant phosphodiesterase IVa (met-248) (Homo sapiens, UniProt P27815).
T1 construct: GST-Met 248 PDE IVa; made in house; host or cells: Sf-9 insect cells (baculovirus expression system)
T1 sequence (P27815 248-886 limits assumed): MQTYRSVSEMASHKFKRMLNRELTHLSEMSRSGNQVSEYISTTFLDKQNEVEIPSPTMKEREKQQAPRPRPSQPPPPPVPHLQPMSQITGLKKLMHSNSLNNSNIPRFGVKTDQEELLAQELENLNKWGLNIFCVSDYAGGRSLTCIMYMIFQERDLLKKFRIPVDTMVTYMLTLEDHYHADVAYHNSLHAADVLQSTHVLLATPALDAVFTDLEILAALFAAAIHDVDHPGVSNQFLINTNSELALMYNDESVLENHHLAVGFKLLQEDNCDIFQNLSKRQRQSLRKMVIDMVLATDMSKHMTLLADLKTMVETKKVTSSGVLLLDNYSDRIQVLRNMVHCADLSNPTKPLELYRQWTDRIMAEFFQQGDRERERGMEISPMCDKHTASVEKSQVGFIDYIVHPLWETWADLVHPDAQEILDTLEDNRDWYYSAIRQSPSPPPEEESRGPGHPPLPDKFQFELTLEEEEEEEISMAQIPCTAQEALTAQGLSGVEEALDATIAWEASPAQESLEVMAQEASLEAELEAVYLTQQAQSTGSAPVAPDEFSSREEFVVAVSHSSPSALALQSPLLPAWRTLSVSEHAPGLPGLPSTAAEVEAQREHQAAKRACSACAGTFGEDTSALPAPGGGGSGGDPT
In words: SPA based PDE activity assay (hydrolysis of cAMP to AMP). It is filed as biochemical. The note with it: 100 nM cAMP; purified GST fusion protein, baculovirus/Sf-9; 10 min at 30° C. The procedure: Phosphodiesterase Scintillation Proximity Assay
CHO-K1 cells were lysed by sonication for 10 secs at a power setting of 50% (Braunsonic Model 2000) in an ice cold solution containing 50 mM Tris, pH 7.5; 1 mM EDTA; and 200 mM b-mercaptoethanol.
The soluble and particulate fractions of the cell were obtained by centrifuging the sonicate for 90 min. at 100,000 x g at 4° C. PDE activity was measured in a solution containing 50 mM Tris, pH 7.5; 10 mM MgCl2; 1 mM EDTA; and 100 nM (or indicated) ^3 H-cAMP (100 ml final volume) in the presence of varying concentrations of inhibitor. The reaction mixture containing enzyme was incubated for 10 min. at 30° C. in 96-well View Plates (Packard), and terminated by the addition of 50 ml Phosphodiesterase Scintillation Proximity Assay (SPA) Beads (Amersham) containing 18 mM ZnSO4. The amount of ^3 H-cAMP hydrolysis was determined by counting the plates in a Wallac 1450 mBeta LSC counter.
SPA based PDE activity assay protocol
Compounds which inhibit the hydrolysis of cAMP to AMP by the type-IV cAMP-specific phosphodiesterases were screened in 96-well plate format as follows:
In a 96 well-plate at 30° C. was added the test compound (dissolved in 2 ul DMSO), 188 ml of substrate buffer containing [2,8-^3 H] adenosine 3',5'-cyclic phosphate (cAMP, 100 nM to 50 μM), 10 mM MgCl2, 1 mM EDTA, 50 mM Tris, pH 7.5. The reaction was initiated by the addition of […] of human recombinant PDE-IV (the amount was controlled so that~10% product was formed in 10 min. at 30° C). The reaction was stopped after 10 min. by the addition of 1 mg of PDE-SPA beads (Amersham). The product AMP generated was quantified on a Microbeta 96-well plate counter. The signal in the absence of enzyme was defined as the background. 100% activity was defined as the signal detected in the presence of enzyme and DMSO with the background subtracted. Percentage of inhibition was calculated accordingly. IC50 value was approximated with a non-linear regression fit of the standard 4-parameter/multiple binding sites equation from a ten point titration.
IC50 values shown in Table 2 were determined with 100 nM cAMP using the purified GST fusion protein of the human recombinant phosphodiesterase IVa (met-248) produced from a baculovirus/Sf-9 expression system.
For orientation: IC50 means the midpoint of a concentration-inhibition curve. For `COc1ccc([C@H](Cc2ccncc2)c2ccc(C(=O)N3CCN(C)CC3)cc2)cc1OC1CCCC1` [Example 1, (R)-4-{2-(3-Cyclopentyloxy-4-methoxyphenyl)-2-[4-(4-methylpiperazinocarbonyl)pheny]lethyl}pyridine], the IC50 is 0.8 nM. Same read-out and setting: in the case of `COc1ccc([C@H](Cc2ccncc2)c2ccc(C(=O)N3CCCC3)cc2)cc1OC1CCCC1` [Example 2, (R)-4-[2-(3-Cyclopentyloxy-4-methoxyphenyl)-2-(4-pyrrolidinocarbonylphenyl)ethyl]pyridine] it was 1 nM. With `COc1ccc([C@H](Cc2ccncc2)c2ccc(C=NO)cc2)cc1OC1CCCC1` [Example 3, (R)-4-[1-(3-Cyclopentyloxy-4-methoxyphenyl)-2-(4-pyridyl)ethyl]benzaldehyde oxime], the IC50 was 3 nM. As for `COc1ccc([C@H](Cc2ccncc2)c2ccc(-c3nnn[nH]3)cc2)cc1OC1CCCC1` [Example 4, (R)-4-{2-(3-Cyclopentyloxy-4-methoxyphenyl)-2-[4-(tetrazol-5-yl)phenyl]ethyl}pyridine], the IC50 was 2 nM. For the molecule `COc1ccc([C@H](Cc2ccncc2)c2ccc(C(C)O)cc2)cc1OC1CCCC1` (stereo partly drawn) [Example 5, (R)-4-{2-(3-Cyclopentyloxy-4-methoxyphenyl)-2-[4-(1-hydroxyethyl)phenyl]ethyl}pyridine], the IC50 stood at 2 nM.

For the molecule `COc1ccc([C@H](Cc2ccncc2)c2ccc(C(C)=O)cc2)cc1OC1CCCC1` [Example 6, (R)-4-[2-(3-Cyclopentyloxy-4-methoxyphenyl)-2-(4-acetylphenyl)ethyl]pyridine], the IC50 worked out at 3 nM.
